Assay results taken from ChEMBL document CHEMBL1909046, “DrugMatrix in vitro pharmacology data”.

Experiments:
[1] = DRUGMATRIX: Phosphodiesterase PDE4 enzyme inhibition (substrate: [3H]cAMP + cAMP); settings: u-937; Not Active = under 50% inhibition at 10 µM
Adenosine receptor A3 = biological target: T1, Adenosine receptor A3 (Homo sapiens, UniProt P0DMS8); type: cell membranes, CHO-K1, Membrane; settings: cho-k1;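 further: radioligand binding assay with AB-MECA serving as the labeled ligand; in other assays of this panel Not Active means under 50% inhibition at 10 µM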
T1 sequence (P0DMS8 whole entry): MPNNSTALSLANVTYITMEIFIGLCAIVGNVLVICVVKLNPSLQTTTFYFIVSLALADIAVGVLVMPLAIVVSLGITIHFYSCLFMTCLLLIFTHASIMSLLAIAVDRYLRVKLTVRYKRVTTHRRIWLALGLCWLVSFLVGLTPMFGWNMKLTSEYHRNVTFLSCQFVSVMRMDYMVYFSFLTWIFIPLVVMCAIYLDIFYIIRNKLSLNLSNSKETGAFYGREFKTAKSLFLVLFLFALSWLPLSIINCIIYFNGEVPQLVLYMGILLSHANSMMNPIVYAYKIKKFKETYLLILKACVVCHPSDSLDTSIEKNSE

[2] = DRUGMATRIX: Calcium Channel Type L, Phenylalkylamine radioligand binding (ligand: [3H] (-)-Desmethoxyverapamil (D-888)); type: cell membranes, Rattus norvegicus, Wistar, Brain, Membrane; settings: Not Active = under 50% inhibition at 10 µM
[3] = biological target: 5-hydroxytryptamine receptor 2B (Homo sapiens, UniProt P41595); type: cell membranes, CHO-K1, Membrane; settings: cho-k1; further: in other assays of this panel Not Active means under 50% inhibition at 10 µM
Calcitonin receptor = biological target: T2, Calcitonin receptor (Homo sapiens, UniProt P30988); type: cell membranes, Membrane; settings: t47d; further: in other assays of this panel Not Active means under 50% inhibition at 10 µM
T2 sequence (P30988 whole entry): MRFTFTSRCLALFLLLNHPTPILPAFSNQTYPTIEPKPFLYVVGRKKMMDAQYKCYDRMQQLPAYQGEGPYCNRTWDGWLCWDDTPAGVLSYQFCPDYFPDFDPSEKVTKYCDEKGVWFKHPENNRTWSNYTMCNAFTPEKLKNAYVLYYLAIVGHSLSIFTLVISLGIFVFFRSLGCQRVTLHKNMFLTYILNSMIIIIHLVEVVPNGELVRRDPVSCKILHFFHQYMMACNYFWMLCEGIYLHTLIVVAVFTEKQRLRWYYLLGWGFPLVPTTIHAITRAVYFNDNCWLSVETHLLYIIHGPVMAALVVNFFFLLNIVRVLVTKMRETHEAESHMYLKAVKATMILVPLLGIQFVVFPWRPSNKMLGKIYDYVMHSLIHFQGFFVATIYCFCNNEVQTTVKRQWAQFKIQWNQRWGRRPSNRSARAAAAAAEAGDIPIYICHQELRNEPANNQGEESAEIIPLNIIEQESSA

Interstitial collagenase = biological target: T3, Interstitial collagenase (Homo sapiens, UniProt P03956); type: tissue-based, Rheumatoid synovial fibroblasts;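 further: MMP-1 enzyme inhibition assay using a peptide substrate; in other assays of this panel Not Active means under 50% inhibition at 10 µM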
T3 sequence (P03956 whole entry): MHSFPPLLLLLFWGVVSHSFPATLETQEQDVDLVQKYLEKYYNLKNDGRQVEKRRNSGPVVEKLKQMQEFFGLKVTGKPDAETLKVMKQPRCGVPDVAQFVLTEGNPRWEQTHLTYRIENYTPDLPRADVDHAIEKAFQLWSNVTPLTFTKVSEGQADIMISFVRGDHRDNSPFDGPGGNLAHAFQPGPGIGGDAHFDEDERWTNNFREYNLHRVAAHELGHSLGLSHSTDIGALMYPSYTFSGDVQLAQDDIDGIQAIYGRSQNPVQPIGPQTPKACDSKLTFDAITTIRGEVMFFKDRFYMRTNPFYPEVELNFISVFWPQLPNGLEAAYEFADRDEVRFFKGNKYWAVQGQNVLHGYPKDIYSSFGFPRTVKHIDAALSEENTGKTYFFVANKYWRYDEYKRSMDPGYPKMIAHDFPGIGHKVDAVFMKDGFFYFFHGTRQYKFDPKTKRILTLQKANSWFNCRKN

B2 bradykinin receptor = biological target: T4, B2 bradykinin receptor (Homo sapiens, UniProt P30411); type: cell membranes, Membrane; settings: chem-1; further: in other assays of this panel Not Active means under 50% inhibition at 10 µM
T4 sequence (P30411 whole entry): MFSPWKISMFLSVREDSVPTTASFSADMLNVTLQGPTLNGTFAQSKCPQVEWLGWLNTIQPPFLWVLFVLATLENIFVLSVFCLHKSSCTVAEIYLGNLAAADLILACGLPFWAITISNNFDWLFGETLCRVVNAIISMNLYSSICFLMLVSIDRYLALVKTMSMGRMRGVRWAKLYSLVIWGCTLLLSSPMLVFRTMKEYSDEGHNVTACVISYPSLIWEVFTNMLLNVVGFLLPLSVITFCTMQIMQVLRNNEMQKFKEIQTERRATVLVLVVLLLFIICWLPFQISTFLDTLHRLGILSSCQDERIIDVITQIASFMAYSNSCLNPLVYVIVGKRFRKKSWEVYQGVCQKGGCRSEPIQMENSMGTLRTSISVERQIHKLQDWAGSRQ

[4] = DRUGMATRIX: Sigma2 radioligand binding (ligand: [3H] Ifenprodil); type: cell membranes, Rattus norvegicus, Wistar, Brain, Membrane; settings: Not Active = under 50% inhibition at 10 µM
Estrogen receptor = biological target: T5, Estrogen receptor (Homo sapiens, UniProt P03372); settings: sf9; further: in other assays of this panel Not Active means under 50% inhibition at 10 µM
T5 sequence (P03372 whole entry): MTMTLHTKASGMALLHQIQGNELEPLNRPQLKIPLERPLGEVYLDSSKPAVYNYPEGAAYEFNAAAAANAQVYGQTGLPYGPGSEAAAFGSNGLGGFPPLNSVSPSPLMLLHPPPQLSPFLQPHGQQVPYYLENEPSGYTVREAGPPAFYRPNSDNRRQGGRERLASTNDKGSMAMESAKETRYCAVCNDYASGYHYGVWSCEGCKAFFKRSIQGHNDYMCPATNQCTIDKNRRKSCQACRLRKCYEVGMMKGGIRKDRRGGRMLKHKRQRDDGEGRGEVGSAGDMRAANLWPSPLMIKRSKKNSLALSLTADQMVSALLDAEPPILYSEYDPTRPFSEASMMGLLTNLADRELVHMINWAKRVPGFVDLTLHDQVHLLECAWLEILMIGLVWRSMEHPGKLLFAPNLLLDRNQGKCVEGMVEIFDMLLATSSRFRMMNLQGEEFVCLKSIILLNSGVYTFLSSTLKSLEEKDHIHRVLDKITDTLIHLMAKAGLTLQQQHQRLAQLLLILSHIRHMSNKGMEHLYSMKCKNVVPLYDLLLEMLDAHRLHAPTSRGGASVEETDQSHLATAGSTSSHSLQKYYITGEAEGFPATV

[5] = DRUGMATRIX: Potassium Channel [KATP] radioligand binding (ligand: [3H] Glyburide); type: cell membranes, Membrane; settings: hit-t15; Not Active = under 50% inhibition at 10 µM
[6] = biological target: Prostaglandin G/H synthase 1 (Homo sapiens, UniProt P23219); test: biochemical; type: tissue-based, Platelet; settings: platelet
Carbonic anhydrase 2 = Carbonic anhydrase 2 (Homo sapiens, UniProt P00918); test: DRUGMATRIX: Carbonic Anhydrase II enzyme inhibition (substrate: 4-Nitrophenyl acetate (4-NPA)); type: tissue-based, Erythrocyte; settings: Not Active = under 50% inhibition at 10 µM

5-hydroxytryptamine receptor 2B, sequence (P41595 whole entry): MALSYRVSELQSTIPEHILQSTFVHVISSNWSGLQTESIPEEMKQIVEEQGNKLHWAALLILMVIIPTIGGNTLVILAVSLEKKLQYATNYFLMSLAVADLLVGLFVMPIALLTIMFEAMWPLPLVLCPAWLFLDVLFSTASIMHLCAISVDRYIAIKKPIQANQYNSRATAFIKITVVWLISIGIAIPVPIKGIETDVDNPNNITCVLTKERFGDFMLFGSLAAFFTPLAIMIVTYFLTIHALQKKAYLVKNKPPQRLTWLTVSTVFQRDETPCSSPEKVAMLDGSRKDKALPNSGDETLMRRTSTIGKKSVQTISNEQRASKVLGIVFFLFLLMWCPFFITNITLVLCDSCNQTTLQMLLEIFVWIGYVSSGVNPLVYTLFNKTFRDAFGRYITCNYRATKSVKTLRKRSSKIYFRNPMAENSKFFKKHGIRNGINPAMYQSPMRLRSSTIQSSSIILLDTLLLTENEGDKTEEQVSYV
Prostaglandin G/H synthase 1, sequence (P23219 whole entry): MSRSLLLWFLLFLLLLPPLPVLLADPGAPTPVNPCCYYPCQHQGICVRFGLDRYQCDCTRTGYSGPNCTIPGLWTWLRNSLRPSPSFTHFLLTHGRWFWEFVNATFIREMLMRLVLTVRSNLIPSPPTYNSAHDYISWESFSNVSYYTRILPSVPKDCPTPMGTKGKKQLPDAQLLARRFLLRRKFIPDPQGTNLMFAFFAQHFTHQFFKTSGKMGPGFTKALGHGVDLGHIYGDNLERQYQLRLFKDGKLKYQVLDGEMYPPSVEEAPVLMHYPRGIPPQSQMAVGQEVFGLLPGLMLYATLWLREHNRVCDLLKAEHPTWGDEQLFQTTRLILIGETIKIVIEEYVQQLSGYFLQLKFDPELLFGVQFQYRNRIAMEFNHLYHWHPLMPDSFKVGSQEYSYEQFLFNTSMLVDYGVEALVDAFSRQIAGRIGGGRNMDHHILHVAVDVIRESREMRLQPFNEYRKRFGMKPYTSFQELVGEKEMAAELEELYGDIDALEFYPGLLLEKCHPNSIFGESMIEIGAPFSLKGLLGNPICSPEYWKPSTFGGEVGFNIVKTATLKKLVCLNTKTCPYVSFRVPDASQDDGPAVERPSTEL

Structure (SMILES)	IC50 [1]	Ki [1]	IC50 (Adenosine receptor A3)	IC50 ([2]; read-out: IC50)	Ki ([2]; read-out: Ki)	IC50 [3]	IC50 (Calcitonin receptor)	IC50 (Interstitial collagenase)	IC50 (B2 bradykinin receptor)	IC50 [4]	Ki [4]	IC50 (Estrogen receptor)	IC50 [5]	Ki [5]	IC50 [6]	IC50 (Carbonic anhydrase 2; erythrocyte)	IC50 [2]	Ki [2]	IC50 (Carbonic anhydrase 2; read-out: IC50)
Fc1ccc([C@@H]2CCNC[C@H]2COc2ccc3c(c2)OCO3)cc1 [PAROXETINE]	Not Active	Not Active	Not Active	747 nM	726 nM	Not Active	Not Active	Not Active	Not Active	Not Active	Not Active	Not Active	Not Active	Not Active	Not Active	Not Active			
Nc1nc(=O)[nH]cc1F [FLUCYTOSINE]	Not Active	Not Active	Not Active			Not Active	Not Active	Not Active	Not Active	Not Active	Not Active	Not Active	Not Active	Not Active	Not Active	Not Active	Not Active	Not Active	
O=c1[nH]cc(F)c(=O)[nH]1 [FLUOROURACIL]	Not Active	Not Active	Not Active			Not Active	Not Active	Not Active	Not Active	Not Active	Not Active	Not Active	Not Active	Not Active	Not Active	Not Active	Not Active	Not Active	
O=C(O)c1cn(C2CC2)c2cc(N3CCNCC3)c(F)cc2c1=O [CIPROFLOXACIN]	Not Active	Not Active	Not Active			Not Active	Not Active	Not Active	Not Active	Not Active	Not Active	Not Active	Not Active	Not Active	Not Active	Not Active	Not Active	Not Active	
OCc1ccccc1 [BENZYL ALCOHOL]	Not Active	Not Active	Not Active			Not Active	Not Active	Not Active	Not Active	Not Active	Not Active	Not Active	Not Active	Not Active	Not Active	Not Active	Not Active	Not Active	
CNC(=O)Oc1ccc2c(c1)[C@]1(C)CCN(C)[C@@H]1N2C [PHYSOSTIGMINE]	Not Active	Not Active	Not Active			Not Active	Not Active	Not Active	Not Active	Not Active	Not Active	Not Active	Not Active	Not Active	Not Active	Not Active	Not Active	Not Active	
CCCC[C@@H](CC)COC(=O)c1ccccc1C(=O)OC[C@@H](CC)CCCC [BIS(2-ETHYLHEXYL)PHTHALATE]	Not Active	Not Active	Not Active			Not Active	Not Active	Not Active	Not Active	Not Active	Not Active	Not Active	Not Active	Not Active	Not Active		Not Active	Not Active	66900 nM
O=C1OC2(c3ccc(O)cc3Oc3cc(O)ccc32)c2ccccc21 [FLUORESCEIN]	Not Active	Not Active	Not Active			Not Active	Not Active	Not Active	Not Active	Not Active	Not Active	Not Active	Not Active	Not Active	Not Active	Not Active	Not Active	Not Active	
O=C1OCCN1/N=C/c1ccc([N+](=O)[O-])o1 [FURAZOLIDONE]	Not Active	Not Active	Not Active			Not Active	Not Active	Not Active	Not Active	Not Active	Not Active	Not Active	Not Active	Not Active	Not Active	Not Active	Not Active	Not Active	
